The results in this text go back to BindingDB's records for doi:10.7270/Q2G44NRK (Burnham Center For Chemical Genomics, 2010).

For this assay, the target named is Mu-type opioid receptor (Homo sapiens, UniProt P35372). The assay can be described thus: MOR antagonists, SAR follow-up, image-based (AID 2420).
Mu-type opioid receptor, sequence (P35372 whole entry): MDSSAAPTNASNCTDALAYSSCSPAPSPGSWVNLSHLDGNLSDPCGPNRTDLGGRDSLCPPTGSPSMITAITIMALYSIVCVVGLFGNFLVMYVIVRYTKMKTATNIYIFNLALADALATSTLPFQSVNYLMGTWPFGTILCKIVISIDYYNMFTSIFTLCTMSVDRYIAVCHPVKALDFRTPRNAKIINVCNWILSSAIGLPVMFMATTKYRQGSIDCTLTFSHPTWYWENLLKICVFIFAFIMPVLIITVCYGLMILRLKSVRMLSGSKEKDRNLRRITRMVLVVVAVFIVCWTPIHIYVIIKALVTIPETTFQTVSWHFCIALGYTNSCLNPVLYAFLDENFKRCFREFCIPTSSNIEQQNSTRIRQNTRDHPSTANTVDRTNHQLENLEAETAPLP

Molecule `CCC(N=Nc1ccnc2cc(Cl)ccc12)c1ccc(O)cc1` (configuration not stated) [4-[1-[2-(7-chloroquinolin-4-yl)hydrazinyl]propylidene]cyclohexa-2,5-dien-1-one] gave an IC50 greater than 32 µM.

With `Oc1ccc(CN=Nc2ccnc3cc(Cl)ccc23)cc1O` [(4Z)-4-[[2-(7-chloroquinolin-4-yl)hydrazinyl]methylidene]-2-hydroxycyclohexa-2,5-dien-1-one], the IC50 was greater than 32 µM.
